# Laboratory results from ChEMBL document CHEMBL1157539, “Thousands of chemical starting points for antimalarial lead identification” (Nature, 2010).
# Values joined by “and” are separate entries in the source; they are usually repeats but may differ in a detail not shown here. Identical values can stand only once.
# Test system: Plasmodium falciparum
# Assay: GSK_TCMDC: Inhibition of Plasmodium falciparum 3D7 in whole erythrocytes, using parasite LDH activity as an index of growth.
# Assay type: functional, organism-based
# Settings: not given
row,SMILES,XC50
1,O=C(/C=C/c1ccc(C(F)(F)F)cc1)NC1CCC(CN2CCC(c3c[nH]c4ccccc34)CC2)CC1 (centres undefined),964 nM and 369 nM

# Same assay, conditions: Plasmodium falciparum, 3D7
row,SMILES,XC50 [nM]
1,CN(C)c1ccc(/N=C2/N/C(=N/c3ccc(N(C)C)cc3)c3ccccc32)cc1,848
2,Cc1ccc(Nc2nc(C)cc(NCc3ccc(-n4ccnc4)cc3)n2)cc1,1010
3,CCCCNCc1cc(Cl)c2ccccc2c1O,457
4,CN1CCN(Cc2nc(-c3ccc4c(Nc5ccc(F)c(O)c5)ccnc4c3)cs2)CC1,171
5,CCOc1c(Br)cc(Cl)cc1CNCCCNc1nc2ccccc2[nH]1,689
6,Fc1ccc(C=NN=c2cc[nH]c3ccc(C(F)(F)F)cc23)cc1,1100
7,c1ccc(Oc2ccc(Nc3ccnc4cc(-c5csc(CN6CCCCC6)n5)ccc34)cc2)nc1,579
8,COc1ccc(-c2cccc(NC(=O)c3ccccc3)c2)cc1CN1CCCN(C)CC1,733
9,COCCN1CCN(Cc2ccc(-c3cccc(-c4nc5ccccc5[nH]4)c3)cc2)CC1,1110
10,COc1ccc(Nc2cc(C)nc(Nc3ccc(NC(C)=O)cc3)n2)cc1,865
11,Cc1nc(C)c(-c2ccc(Br)cc2)c(O)c1Br,638
12,O=C(NCC1CCN(CCN2CCc3ccc4c(c3C2)OCO4)CC1)c1ccc(-c2ccc(C(F)(F)F)cc2)cc1,861
13,CCN(CC)CCN1C(=O)c2oc3ccc(Cl)cc3c(=O)c2C1c1ccc(SC)cc1 (centres undefined),1060
14,CC(Cc1ccc(OCC(=O)NCC2CCN(CCc3cccc(Cl)c3)CC2)cc1)NCCc1cccc(Cl)c1 (centres undefined),663
15,CN(Cc1ccncc1)C(Cc1ccccc1)C1CCN(Cc2ccc(O)c(Cl)c2)CC1 (centres undefined),747
16,Cc1ncccc1C(=O)Nc1ccc(-c2cccc(-c3nc4cccc(C)c4[nH]3)c2)cc1,733
17,Nc1nc(N)c2c(Oc3cccc(Cl)c3)cccc2n1,471
18,CCCCN(Cc1cnccc1-c1ccc(Br)cc1)c1ccc(C(O)(C(F)(F)F)C(F)(F)F)cc1,1060
19,COc1ccc(Nc2nc(NCc3ccc(-n4ccnc4)cc3)cc(-c3ccc(OC)cc3)n2)cc1,827
20,Cn1cncc1C(=O)Nc1cccc(-c2ccc(-c3nc4ccccc4[nH]3)cc2)c1,854
21,CC[C@H]1CN2CC[C@H]1C[C@@H]2[C@H](O)c1ccnc2ccc(O)cc12,1040
22,CCOc1cccc(C(=O)Nc2cccc(CN3CCCN(Cc4cccc(O)c4)CC3)c2)c1,1090
23,Cc1ccnc(NC(c2cccc(OCc3ccccc3)c2)c2ccc3cccnc3c2O)c1 (centres undefined),864
24,Nc1nccc2ccc(-c3ccc4ncccc4c3)cc12,112

row,SMILES,XC50 [nM]
1,CCc1cc(CNC2CCN(CCc3c(F)cnc4ccc(OC)nc34)CC2)cc2c1OCCO2,264
2,O=C(NCCc1ccccc1)N(Cc1cccc(-c2ccc(CNCc3ccc4c(c3)OCO4)cc2)c1)C1CCN(Cc2ccccc2)CC1,661
3,Cc1cccc2nc(-c3ccc(-c4ccc(CN5CCN(CC6CCCN(C)C6)CC5)cc4)cc3)[nH]c12 (centres undefined),144
4,CCS[C@@H]1O[C@H](COC(=O)c2ccccc2)[C@H](OC(=O)c2ccccc2)[C@H](OC(=O)c2ccccc2)[C@H]1OC(=O)c1ccccc1,808
5,Cc1cc(C(=O)CSc2nc3ccccc3n2-c2ccccc2)c(C)n1C1CCS(=O)(=O)C1 (centres undefined),1000
6,COc1ccc2[nH]c(C)cc(=NN=Cc3cc(C)ccc3O)c2c1,143
7,COc1ccc(-c2ccc(NC(=O)c3ccc(C#N)cc3)cc2)cc1CNC(C)C,529
8,CCc1cc([C@H]2O[C@@H](n3cnc4c(NCC(c5ccccc5)c5ccccc5)nc(NCCNc5ccccn5)nc43)[C@H](O)[C@@H]2O)on1,891
9,O=C(N[C@@H](Cc1ccccc1)C(=O)NCc1cccc(C(F)(F)F)c1)c1ccc(O)c(-c2ccc(Cl)c(Cl)c2)c1,696
10,COc1ccc(NC(=O)CCNc2cc(C)nc(NCCc3ccc(F)cc3)n2)cc1,848
11,CN1CC=C(c2c[nH]c3ccc(Br)cc23)CC1,1190
12,CC(C)(CNC(=O)[C@H]1CCCN1)c1nc(-c2ccc(Cl)c(O)c2)c(-c2ccncc2)[nH]1,1270
13,CN1CCN(CCCN(Cc2ccc(-c3cccc(CNCc4ccc5c(c4)OCO5)c3)cc2)C(=O)NC2CCCCC2)CC1,988
14,CNc1cc(-c2ccc3ccnc(N)c3c2)nc(N)n1,119
15,Cc1ccc(N2C(N)=NC(N)=NC2(C)C)cc1Cl,6.82
16,O=C(Nc1ccccc1Cl)N(Cc1cc(Cl)cc(Cl)c1)CC(O)COc1ccc(Cl)c(F)c1 (centres undefined),788
17,c1ccc2c(C3CCN(CCCCOc4ccc5c(c4)CCN(C4CCC4)CC5)CC3)c[nH]c2c1,705
18,CC(=O)Nc1ncc(C(=O)Nc2cccc(-c3ccc(-c4nc5cc(C(F)(F)F)ccc5[nH]4)s3)c2)s1,398
19,O=C(/C=C/c1ccc([N+](=O)[O-])cc1)N1CCC(CCN2CCC(c3c[nH]c4ccccc34)CC2)CC1,743
20,COc1ccc(Cc2cnc(N)nc2N)cc1OCCCOc1ccccc1,911
21,C[C@H](Cc1ccc(CCc2ccc(C[C@@H](C)NC[C@H](O)c3cccc(Cl)c3)cc2)cc1)NC[C@H](O)c1cccc(Cl)c1,935
22,N#Cc1ccc(OCCN(Cc2ccccc2C(F)(F)F)c2ccc(C#N)c(C(F)(F)F)c2)cc1,277
23,Cc1cc(N[C@@H](Cc2ccccc2)C(=O)NC2CCCC2)nc(Nc2ccccc2)n1,828
24,CC(=O)NCCNc1nccc(N2CCc3ncnc(Nc4ccc(OCc5cccc(F)c5)c(Cl)c4)c3C2)n1,129

row,SMILES,XC50 [nM]
1,Cc1cccc2nc(-c3cccc(-c4cccc(CNCCCN5CCCC5=O)c4)c3)[nH]c12,743
2,CN(Cc1ccc(-c2ccc(C(F)(F)F)cc2)cc1)C(=O)Cn1c(CCc2cccc(F)c2F)cc(=O)c2ccc(OCCCN3CCCCC3)cc21,706
3,Cc1ccc2c(-c3ccc([N+](=O)[O-])o3)cc(C)nc2c1,43.7
4,CCC[C@@H]([C@@H](CC1CCCCC1)C(=O)N[C@H](C(=O)Nc1nccs1)C(C)(C)SCCNC(=O)OCC)N(O)C=O,83.4
5,Cc1ccc(Oc2cnn(C)c(=O)c2Nc2cccc(C(=O)NCCc3ccccn3)c2)c(C)c1,494
6,O=S(=O)(Nc1cccc(CCN2CCCCC2CCN2CCCC2)c1)c1ccc(-c2ccccc2)cc1 (centres undefined),1090
7,CC[C@H]1CN2CC[C@@H]1C[C@H]2[C@H](O)c1cc(N2CCC(c3ccccc3)CC2)nc2ccc(OC)cc12,346
8,COc1cc(Nc2nccc(N3CCC(NC(=O)Nc4cc(C)ccc4C)C3)n2)cc(OC)c1OC (centres undefined),1120
9,CCCCNCc1ccc(-c2nc(CN(Cc3ccc(Cl)c(Cl)c3)S(=O)(=O)c3ccc(NC(C)=O)cc3)cs2)cc1,1030
10,O=C(NCCc1ccc(Cl)c(Cl)c1)[C@@H]1CCCN1C(=O)c1ccc(O)c(-c2cccc(C(F)(F)F)c2)c1,825
11,COc1cc(C(=O)NCCCN2CCN(c3cccc(Cl)c3)CC2)ccc1-c1cc2cc(Cl)c(Cl)cc2[nH]1,468
12,C=CCOc1ccc(Cc2cnc(N)nc2N)cc1CCC,1020
13,O=S(=O)(NCCN1CCCC1)c1ccc(-c2ccc(CNCc3ccccc3)cc2)cc1F,1290
14,CC(C)(C)c1ccc(S(=O)(=O)Nc2ccccc2N2CCOCC2)cc1,683
15,O=C(c1ccc(-c2ccccn2)s1)N1CCc2cc3nccc(N4CCN5CCC[C@H]5C4)c3cc21,762
16,COc1ccc(CNC2CCN(C)CC2)cc1-c1ccc(S(=O)(=O)NCCc2ccccn2)c(C)c1,1150
17,O=C(/C=C/c1ccc(F)cc1)NC1CCC(CCN2CCc3ccc(-n4cccn4)cc3CC2)CC1 (centres undefined),1440
18,Cc1cc(NC(=O)Nc2ccc(C(C)(C)C)cc2)c2ccccc2n1,719
19,O=C(NCCCCN1CCC(c2ccc3c(c2OCCN2CCCC2=O)CCCC3)CC1)c1ccc(-c2ccc(C(F)(F)F)cc2)cc1,1520
20,CCCCNC(=O)C(C)NC(=O)c1ccc(O)c(-c2ccc(Cl)c(Cl)c2)c1 (centres undefined),823
21,Nc1ccc(-c2nc3cc(Cc4ccc5[nH]c(-c6ccc(N)cc6)nc5c4)ccc3[nH]2)cc1,512
22,N#CC(NC(=O)C=Cc1ccccc1)c1ccccc1 (centres undefined),181
23,COc1ccc(F)cc1-c1csc(N(c2ccc(F)cc2)C2CCNCC2)n1,1210
24,COc1cccc(-n2ncc3c(N/N=C/c4ccc(CN(C)CCN(C)C)cc4)ncnc32)c1,893

row,SMILES,XC50 [nM]
1,COc1cccc(-c2cccc(CNC3CCN(CC4Cn5c(=O)ccc6ccc(F)c4c65)CC3)c2)c1 (centres undefined),934
2,COc1ccc2nc(C)cc(Nc3ccc(Cl)cc3)c2c1,946
3,Cc1cc(N[C@@H](Cc2ccccc2)C(=O)NCc2cccs2)nc(NCC2CCCCC2)n1,988
4,CC(Nc1ccc2c(c1)CCC2)C(=O)Nc1cc(C(F)(F)F)ccc1N1CCOCC1 (centres undefined),85.3
5,O=C(Nc1ccc2c(c1)CN(Cc1ccc(N3CCCC3)o1)CCC2)c1cncs1,1570
6,COc1cc(NC(=O)c2sc(-c3ccc(Cl)cc3)cc2NC(=O)c2ccncc2)ccc1OCCN1CCCC1,31.5
7,Cc1cc(N[C@@H](Cc2ccccc2)C(=O)NCc2cccc(F)c2)nc(NCCCOC(C)C)n1,920
8,CC(=O)Nc1cccc(CN(Cc2ccc(-c3ccc(CNCc4cccnc4)cn3)cc2)C(=O)Cc2cccnc2)c1,820
9,CN(C)CCOc1cc(NC(=O)Nc2ccc(-c3ccncc3)c(C(F)(F)F)c2)ccc1Cl,991
10,NCCCNc1nccc(N2CCc3ncnc(Nc4ccc(OCc5cccc(F)c5)c(Cl)c4)c3C2)n1,832
11,CC1(C)NC(N)=NC(=N)N1OCCCCCOc1ccccc1,3.2
12,COc1ccc2nccc([C@@H](O)CN3CCC(NCc4ccc5c(c4)NC(=O)CO5)CC3)c2c1,1660
13,Cc1c(CNCCCNc2nc3ccccc3[nH]2)sc(C(F)F)c1Br,293
14,CNCc1cccc2nc(-c3ccc(Cc4cc(Cl)ccc4OCC(C)C)o3)[nH]c12,895
15,Cc1cc2nc(-c3ccc(/C=C/C(=O)NCCc4ccccc4)cc3)[nH]c2cc1C,779
16,Cc1cccc2nc(-c3ccc(-c4cccc(CNCCc5ccncc5)c4)s3)[nH]c12,138
17,CCCCCCOc1ccc2ccccc2c1CNCCCCCCNCc1c(OCCCCCC)ccc2ccccc12,1060
18,CC(C)c1ccc(NC(=O)N2CCc3ccc(OCCN(C(C)C)C(C)C)cc32)c(Br)c1,1090
19,NCCNS(=O)(=O)c1ccc(-c2ccnc3[nH]c(-c4ccncc4)cc23)cc1,840
20,COc1ccc(CNCC(C)(C)c2nc(-c3ccc(Cl)c(O)c3)c(-c3ccncc3)[nH]2)cc1,357
21,COc1cccc(CNC[C@@H](O)[C@H](Cc2ccccc2)NC(=O)c2cc(C(C)C)cc(N3CCCC3=O)c2)c1,953
